One may read the MIC99 as an inhibitory concentration at the 99% level, which refers to growth in some studies and to a panel of isolates in others. A word on the CC50: it is the concentration at which the toxic effect on the cells reaches its halfway point.

The structures appear in SMILES notation. ≈ marks a conversion by molar mass, not a printed value. A value given as a limit tells only on which side of the number the result lay.

For data set [1], the system named is Mycobacterium tuberculosis. Description: Antibacterial activity against Mycobacterium tuberculosis incubated for 1 to 2 weeks in 7H9/DPPC/casitone/Tx medium. It counts as functional. The following applies: time 1-2 weeks.
Data set [2] concerns Mycobacterium tuberculosis. Description: Antibacterial activity against Mycobacterium tuberculosis incubated for 1 to 2 weeks in 7H9/ADC/Tw medium. The format is functional. The settings on record: time 1-2 weeks.
The test system of data set [3] is Mycobacterium tuberculosis. Description: Antibacterial activity against Mycobacterium tuberculosis incubated for 1 to 2 weeks in GastFe medium. It counts as functional. The following applies: time 1-2 weeks.
Data set [4] has as its system Vero. Description: Cytotoxicity against African green monkey Vero cells measured after 72 hrs by tetrazolium-based colorimetric MTT assay. It counts as toxicity, cell-based. The settings on record: chlorocebus sabaeus. (Tetrazolium dyes change colour on reduction, which living cells bring about.)
Setting [5] is: Mycobacterium tuberculosis, read-out: MIC99.

Turning to `Nc1cccc(F)c1C(=O)NNCc1ccccc1`, the values for the MIC99 in data set [1] (setting [5]), in data set [2] (setting [5]) and in data set [3] (setting [5]) were 50 µM (≈ 13 µg/mL), over 50 µM and over 50 µM, respectively.
As to `Cc1nc(-c2c(N)cccc2F)no1`, the MIC99 in data set [1] (setting [5]), in data set [2] (setting [5]) and in data set [3] (setting [5]) was over 50 µM throughout.
In the case of `CC(C)(C)OC(=O)NNC(=O)c1c(N)cccc1F`, the MIC99 in data set [1] (setting [5]), in data set [2] (setting [5]) and in data set [3] (setting [5]) was over 50 µM in each case.
For `Nc1cccc(F)c1C(=O)NO`, the MIC99 in data set [1] (setting [5]), in data set [2] (setting [5]) and in data set [3] (setting [5]) was over 50 µM throughout.
For `Nc1cccc(F)c1C(=O)N1CCCC1`, the MIC99 in data set [1] (setting [5]), in data set [2] (setting [5]) and in data set [3] (setting [5]) was over 50 µM each time.
As for `Nc1cccc(F)c1C(=O)NNc1ccc(F)cc1`, the MIC99 was 1.56 µM (≈ 0.411 µg/mL) in data set [1] (setting [5]), 9.4 µM (≈ 2.47 µg/mL) in data set [2] and 2.3 µM (≈ 0.605 µg/mL) in data set [3] (setting [5]). In addition, in data set [4], half-maximal cytotoxicity (CC50) was put at 1360 µM.
Consider `Nc1cccc(F)c1C(=O)N1CCCCC1`, for which the MIC99 in data set [1] (setting [5]), in data set [2] (setting [5]) and in data set [3] (setting [5]) was over 50 µM each time.
With `NC(=O)c1c(N)cccc1F`, the MIC99 in data set [1] (setting [5]), in data set [2] (setting [5]) and in data set [3] (setting [5]) was over 50 µM each time.
For the compound `CONC(=O)c1c(N)cccc1F`, the MIC99 in data set [1] (setting [5]), in data set [2] (setting [5]) and in data set [3] (setting [5]) was over 50 µM each time.
Turning to `Nc1cccc(F)c1C(=O)NNc1ccc(Cl)c(Cl)c1`, the MIC99 in data set [1] (setting [5]) was found to be 1.56 µM (≈ 0.49 µg/mL); in data set [2] (setting [5]), 25 µM (≈ 7.85 µg/mL); in data set [3] (setting [5]), 12.5 µM (≈ 3.93 µg/mL). In data set [4], this compound had a CC50 of over 1800 µM.
As to `Nc1cccc(F)c1C(=O)NNc1cccc(Cl)c1Cl`, the MIC99 is 6.25 µM (≈ 1.96 µg/mL) in data set [1] (setting [5]), 50 µM (≈ 15.7 µg/mL) in data set [2] (setting [5]) and 12.5 µM (≈ 3.93 µg/mL) in data set [3] (setting [5]). This compound displayed a CC50 in data set [4] of over 1800 µM.
Consider `Nc1cccc(F)c1C(=O)NCCO`, for which the MIC99 in data set [1] (setting [5]), in data set [2] (setting [5]) and in data set [3] (setting [5]) was over 50 µM throughout.
As to `Nc1cccc(F)c1C(=O)NNc1ccccc1[N+](=O)[O-]`, the MIC99 in data set [1] (setting [5]) is 50 µM (≈ 14.5 µg/mL); in data set [2] (setting [5]) it was over 50 µM; in data set [3] (setting [5]) it was over 50 µM.
`Nc1cccc(F)c1C(=O)O` displayed a CC50 in data set [4] of 74 µM. Further, the MIC99 in data set [2] (setting [5]) is 5 µM (≈ 0.776 µg/mL).
Turning to `Cl.Nc1cccc(F)c1C(=O)NNc1ccc(F)cc1`, the MIC99 in data set [1] and in data set [3] was 1.4 µM each time. The compound also showed a CC50 in data set [4] of over 1800 µM.
As for `Nc1cccc(F)c1C(=O)NNc1c(Cl)cc(Cl)cc1Cl`, the results for the MIC99 in data set [1] (setting [5]), in data set [2] (setting [5]) and in data set [3] (setting [5]) were 0.625 µM (≈ 0.218 µg/mL), 5 µM (≈ 1.74 µg/mL) and 1.25 µM (≈ 0.436 µg/mL), respectively. In data set [4], this compound had a cytotoxic concentration (CC50) of over 1800 µM.
As for `Nc1cccc(F)c1C(=O)NNc1ccc([N+](=O)[O-])cc1[N+](=O)[O-]`, the MIC99 in data set [1] (setting [5]), in data set [2] (setting [5]) and in data set [3] (setting [5]) was over 50 µM each time.
As to `Nc1cccc(F)c1C(=O)NNc1cccc([N+](=O)[O-])c1`, the results for the MIC99 in data set [1] (setting [5]), in data set [2] (setting [5]) and in data set [3] (setting [5]) were 6.25 µM (≈ 1.81 µg/mL), over 50 µM and 25 µM (≈ 7.26 µg/mL), respectively. Also, the CC50 in data set [4] was 1300 µM.
Regarding `Cl.Nc1cccc(F)c1C(=O)NNc1ccccc1`, the figures for the MIC99 in data set [1] and in data set [3] were 1.3 µM and 2.3 µM, respectively. In data set [4], the CC50 is over 1800 µM.
Take `Nc1cccc(F)c1C(Nc1ccc(F)cc1)C(F)(F)F` (stereo not drawn): the MIC99 in data set [1] (setting [5]), in data set [2] (setting [5]) and in data set [3] (setting [5]) was 50 µM (≈ 15.1 µg/mL) in each case.
As to `Nc1cccc(F)c1C(=O)NNc1cc(Cl)cc(Cl)c1`, the values for the MIC99 in data set [1] (setting [5]), in data set [2] (setting [5]) and in data set [3] (setting [5]) were 6.25 µM (≈ 1.96 µg/mL), over 50 µM and 25 µM (≈ 7.85 µg/mL), respectively.
On the same counts, the results for `Nc1cccc(F)c1C(N1CCOCC1)C(F)(F)F` (stereo not drawn) are 50 µM (≈ 13.9 µg/mL), 50 µM (≈ 13.9 µg/mL) and 50 µM (≈ 13.9 µg/mL).
The like results for `NNC(=O)c1c(N)cccc1F` were, in that order, over 50 µM, over 50 µM and over 50 µM.
For the compound `Nc1cccc(F)c1C(=O)NNc1cccc(F)c1`, the MIC99 in data set [1] (setting [5]) is 1.56 µM (≈ 0.411 µg/mL); in data set [2] (setting [5]) it was 12.5 µM (≈ 3.29 µg/mL); in data set [3] (setting [5]), 6.25 µM (≈ 1.65 µg/mL). For the same compound, the CC50 in data set [4] was 1360 µM.
Consider `Nc1cccc(F)c1C(=O)Nc1ccc(F)cc1`, for which the MIC99 in data set [1] (setting [5]), in data set [2] (setting [5]) and in data set [3] (setting [5]) was over 50 µM in each case.
In the case of `Nc1cccc(F)c1C(=O)NNc1ccc(Cl)cc1Cl`, the MIC99 in data set [1] (setting [5]) worked out at 3.12 µM (≈ 0.982 µg/mL); in data set [2] (setting [5]) it was 50 µM (≈ 15.7 µg/mL); in data set [3] (setting [5]) it was 6.25 µM (≈ 1.96 µg/mL). This compound showed a CC50 in data set [4] of 1040 µM.
On the same counts, the results for `Nc1cccc(F)c1C(=O)NNC1CCCCC1` are 9.4 µM (≈ 2.36 µg/mL), 9.4 µM (≈ 2.36 µg/mL), 50 µM (≈ 12.6 µg/mL) and 909 µM.
The like results for `COc1ccc(NNC(=O)c2c(N)cccc2F)cc1` were, in that order, 1.56 µM (≈ 0.429 µg/mL), 12.5 µM (≈ 3.44 µg/mL), 0.78 µM (≈ 0.215 µg/mL) and 1310 µM.
Take `Nc1cccc(F)c1C(=O)NNc1ccccc1Cl`: the MIC99 in data set [1] (setting [5]) turned out to be 3.12 µM (≈ 0.874 µg/mL); in data set [2] (setting [5]), 25 µM (≈ 6.99 µg/mL); in data set [3] (setting [5]) it was 3.12 µM (≈ 0.874 µg/mL). Besides, the CC50 in data set [4] came out at 792 µM.
With `NNC(=O)c1ccncc1` [ISONIAZID], in data set [1] (setting [5]), the MIC99 turned out to be 0.1 µM (≈ 0.0137 µg/mL).
On to `Nc1cccc(F)c1C(N1CCSCC1)C(F)(F)F` (stereo not drawn), for which the MIC99 in data set [1] (setting [5]), in data set [2] (setting [5]) and in data set [3] (setting [5]) was 50 µM (≈ 14.7 µg/mL) in each case.
With `Nc1cccc(F)c1C(=O)NNc1ccccc1`, the MIC99 in data set [1] (setting [5]) was determined as 1.56 µM (≈ 0.383 µg/mL); in data set [2], 12.5 µM (≈ 3.07 µg/mL). The midpoint of cytotoxicity in data set [4], the CC50, lay at 2030 µM.
Consider `Nc1cccc(F)c1C(=O)NC1CCC1`, for which the MIC99 in data set [1] (setting [5]), in data set [2] (setting [5]) and in data set [3] (setting [5]) was over 50 µM each time.
For `Nc1cccc(F)c1C(=O)NNc1ccc(C(F)(F)F)cc1`, the MIC99 is 2.84 µM (≈ 0.89 µg/mL) in data set [1] (setting [5]), 45.5 µM (≈ 14.2 µg/mL) in data set [2] (setting [5]) and 11.4 µM (≈ 3.56 µg/mL) in data set [3] (setting [5]). The same compound returned a CC50 in data set [4] of 1360 µM.
Turning to `CN1CCN(C(=O)c2c(N)cccc2F)CC1`, the MIC99 in data set [1] (setting [5]), in data set [2] (setting [5]) and in data set [3] (setting [5]) was over 50 µM each time.
With `Nc1cccc(F)c1C(=O)NC1CCCCC1`, the MIC99 in data set [1] (setting [5]), in data set [2] (setting [5]) and in data set [3] (setting [5]) was over 50 µM in each case.
For the compound `Cc1nnc(-c2c(N)cccc2F)o1`, the MIC99 in data set [1] (setting [5]), in data set [2] (setting [5]) and in data set [3] (setting [5]) was over 50 µM in each case.
`Nc1cccc(F)c1C(=O)NC1CC1`: the MIC99 in data set [1] (setting [5]), in data set [2] (setting [5]) and in data set [3] (setting [5]) was over 50 µM each time.
As to `Nc1cccc(F)c1-c1nnn[nH]1`, the MIC99 in data set [1] (setting [5]), in data set [2] (setting [5]) and in data set [3] (setting [5]) was over 50 µM each time.
Take `Nc1cccc(F)c1C(=O)NNc1cc(Cl)ccc1Cl`: the MIC99 in data set [1] (setting [5]) was 6.25 µM (≈ 1.96 µg/mL); in data set [2] (setting [5]), over 50 µM; in data set [3] (setting [5]), 25 µM (≈ 7.85 µg/mL). The CC50 in data set [4] is over 1800 µM.
On the same counts, the results for `Nc1cccc(F)c1C(=O)NNc1ccc(Cl)cc1` are 1.56 µM (≈ 0.436 µg/mL), 12.6 µM (≈ 3.51 µg/mL), 3.12 µM (≈ 0.874 µg/mL) and 373 µM.
On to `CC(C)NC(=O)c1c(N)cccc1F`, for which the MIC99 in data set [1] (setting [5]), in data set [2] (setting [5]) and in data set [3] (setting [5]) was over 50 µM throughout.
For the compound `Nc1cccc(F)c1C(=O)NNc1cccc(Cl)c1`, the MIC99 was 1.56 µM (≈ 0.436 µg/mL) in data set [1] (setting [5]), 25 µM (≈ 6.99 µg/mL) in data set [2] (setting [5]) and 6.25 µM (≈ 1.75 µg/mL) in data set [3] (setting [5]). In addition, the CC50 in data set [4] is over 1800 µM.
Turning to `Nc1cccc(F)c1C(=O)N1CCOCC1`, the MIC99 in data set [1] (setting [5]), in data set [2] (setting [5]) and in data set [3] (setting [5]) was over 50 µM in each case.

For the origin of these results see ChEMBL document CHEMBL5214915 (Eur J Med Chem, 2021).
